“Also recorded” adds a separate entry of the source.
Tests used:
C57BL/6 mice [1] = assay: Mouse air pouch model of in vivo chemotaxis towards LPS; settings: for total amount of white blood cells recruited to the pouches: compound 5 µg with LPS 2 µg, 4 h after injection
Procedure: Air pouches were established by injecting C57BL/6 mice on dorsal sites with 3 mL filtered air (0.20 μm filter) on days 0 and 3. On day 6, test samples were injected in a total volume of 1 mL and at the indicated amount. After 4 h, mice were euthanized and the exudates of the pouches were collected after injection of 1 mL pyrogen-free PBS containing 20 U/mL heparin and 2% KnockOut™ Serum Replacement (Gibco, Waltham, MA, USA), and followed by 30 sec of gentle massage. This procedure was repeated twice with 2 mL buffer. Next, the pouch fluid was centrifuged (10 min, 500× g) and supernatant and cell pellets were separated for further analysis. Data were collected during three independent experiments with 3–4 mice per group. All procedures were conducted in accordance with protocols approved by the local Ethics Committee (License number P033/2018, Belgium).
For microscopic evaluation of cells derived from air pouches, 75 × 10^3 cells were deposited evenly onto a glass slide by centrifugation using a Shandon Cytospin 2 apparatus (Thermo Shandon, Pittsburgh, PA, USA). Next, the preparations were stained with Hemacolor (Merck Chemicals, Darmstadt, Germany). Cells were divided into 4 categories; neutrophils, monocytes/macrophages, lymphocytes and other cells. For each condition, three times 100 cells were counted and the average was used as a final value.
Approximately 10^6 cells were incubated for 15 min with the Fc-receptor-blocking antibodies anti-CD16/anti-CD32 (BD Biosciences Pharmingen, San Diego, CA, USA) and with a Zombie Aqua™ viability dye (BioLegend, San Diego, CA, USA). […] Cells were analyzed on a BD LSR Fortessa X20 with DIVA software (BD, Franklin Lakes, NJ, USA, v9.0). Results were further analyzed with the FlowJo software (BD, Franklin Lakes, NJ, USA, v10.0). […]

C57BL/6 mice [2] = assay: Mouse endotoxemia model; type: in vivo; settings: for levels of MMP-9 in plasma and lungs (Western blot): 5 h after LPS/compound administration
Procedure: Endotoxemia was induced in 8-week old C57BL/6 mice by intraperitoneal (i.p.) injection of lipopolysaccharides (LPS) (Escherichia coli 0111:B4, cat. no. 4391, Sigma-Aldrich, St. Louis, MO, USA ) at 10 mg/kg. Control mice were injected with an equal volume of vehicle (pyrogen-free phosphate-buffered saline). A volume of 500 µl compound 5 or 7, diluted in PBS with 2% DMSO (2 mg/mL), was injected i.p. at the same time as the LPS injection (± 50 mg/kg). […] After induction of endotoxemia, progression of the disease was monitored by hourly evaluation of mouse body temperature (rectal probe) and disease scoring by use of the mouse sepsis score (MSS) as described. When the MSS score was above 21, humane endpoints were reached and mice were sacrificed. Blood was collected by cardiac puncture with a heparin-coated needle and syringe, and immediately processed by centrifugation (2000× g for 10 min at 4 °C). The supernatant (plasma) was collected and stored for further analysis. Mice were dissected and organs were stored for further analysis. Bone marrow cells were collected from femora by flushing the medullary cavity with PBS and after centrifugation the cell pellet was immediately processed for downstream analysis. All procedures were conducted in accordance with protocols approved by the local ethics committee (project number P128/2019, KU Leuven, Belgium).
Tissues were homogenized and proteins extracted with a Precellys lysing kit (Bertin Technologies, Rockville, MD, USA). Briefly, tissues were placed in hard tissue homogenizing CK28 tubes (Bertin Technologies, Rockville, MD, USA). Then, 600 µL of RIPA buffer was added to all tubes and homogenization was done using the Precellys®24 (Bertin Technologies, Rockville, MD, USA). To precipitate all tissue debris, the tubes were centrifuged at 20,800× g and 4 °C for 15 min. Supernatant, containing soluble proteins, was collected and used for further analysis. Total protein content of all samples was determined by using a standard Bradford assay (Bio-Rad, Hercules, CA, USA). […] Proteins were transferred to PVDF membranes using the Trans-Blot Turbo Transfer System with associated materials and protocols (Biorad, Hercules, CA, USA). Next, membranes were blocked for 1 h in 5% BSA with TBST buffer (150 mM NaCl, 0.1% Tween 20, 50 mM Tris, pH 7.5). Membranes were incubated overnight with anti-MMP-9 (AF909, R & D systems, Minneapolis, MO, USA) or anti-tubulin (MA5-16308-HRP, Invitrogen, Carlsbad, CA, USA) antibodies. After washing, the blot was incubated with peroxidase-conjugated anti-goat IgG (PI-9500, Vector Labs, Burlingame, CA, USA) or anti-mouse IgG (115-035-071, Jackson ImmunoResearch, PA, USA) for 1 h at room temperature. […]

[3] = 10 mg/kg LPS i.p. and ± 50 mg/kg compound i.p. simultaneously, hourly

CC(C)[C@H](C(=O)O)N(CCNC(=O)c1cccc(C(=O)NCCN([C@@H](C(=O)O)C(C)C)S(=O)(=O)c2ccc(-c3ccccc3)cc2)c1)S(=O)(=O)c1ccc(-c2ccccc2)cc1 [Compound 7]
neutrophil migration towards E. coli-derived LPS (C57BL/6 mice [1]; air pouch, 4 h): increases neutrophil migration
total amount of white blood cells recruited to the pouches (C57BL/6 mice [1]): significant increase compared to LPS alone
total amount of white blood cells recruited to the pouches (C57BL/6 mice [1]; listed as bivalent inhibitor): amplified leukocyte influxes
disease score (mouse sepsis score, MSS) (C57BL/6 mice [2]; [3]): (although not significant) increase in disease score; also recorded: did not alter disease scores compared to compound 5
mouse body temperature (C57BL/6 mice [2]; [3]): early and significant drop in mouse body temperature
levels of MMP-9 in plasma and lungs (Western blot) (C57BL/6 mice [2]): further induce the presence of MMP-9; also recorded: increased
levels of MMP-9 in plasma and lungs (Western blot) (C57BL/6 mice [2]; listed as bivalent inhibitor): significantly increased levels of MMP-9 in plasma and lungs

From PMC7408547, “Bivalent Inhibitor with Selectivity for Trimeric MMP-9 Amplifies Neutrophil Chemotaxis and Enables Functional Studies on MMP-9 Proteoforms” (Cells, 2020)
